This passage reports EC50, IC50 and outcome results from PubChem BioAssay AID179 (DTP/NCI, 2004).

Where “and” joins values, the source holds several entries; their conditions need not be identical. Equal values may be shown once. Calls of active or inactive are those of the source.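 The calls were made as follows: active = compounds giving half or more protection of infected cells from virus-caused growth loss, again on retest; inactive = the rest.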

In this test the test system is CEM cells HIV-1 protection, formazan growth assay. Nature of the test: NCI AIDS Antiviral Assay. The settings on record: for IC50: measured here: growth of uninfected CEM cells. In outline: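 Protection of CEM cells against HIV-1 was scored from cell growth (soluble formazan) across five concentrations, with parallel uninfected cells. Lack of protection may reflect toxicity.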

For orientation: EC50 means the concentration at which the effect is half-maximal. As a reminder, the IC50 is the concentration at which inhibition is half-maximal. `CCOC(=O)/C(C#N)=C/c1cccc(OC)c1`: the EC50 was greater than 155 µM and the IC50 was greater than 155 µM. Take `CC(=S)N/C=C(\C#N)c1nc2ccccc2s1`: the EC50 was greater than 200 µM and the IC50 came out at 107 µM. `CN1N=CSC12C(=O)N(c1ccccc1)C(=O)N2c1ccccc1` (stereo not given): the outcome was inactive. As to `O=C(/C=C\c1ccccc1)Oc1ccc(/C=C2\CCC/C(=C\c3ccc(OC(=O)/C=C\c4ccccc4)cc3)C2=O)cc1`, the EC50 was greater than 100 µM and the IC50 is greater than 100 µM.

Turning to `C#CCCOC(=O)CC1=C(C)/C(=C/c2ccc(S(C)=O)cc2)c2ccc(F)cc21` (stereo not given), the EC50 was greater than 200 µM and the IC50 amounted to 14.8 µM.

With `CC1(C)C2CCC1(C)[C@H](O)[C@H]2Nc1cc(C(F)(F)F)cc(C(F)(F)F)c1` (stereo not given in full), the EC50 was greater than 20 µM and the IC50 was 0.513 µM. Taken in the same sequence, the figures for `O=C(O)c1ccc([N+](=O)[O-])c2cc3cnccc3nc12` were greater than 200 µM and 2.88 µM. Taken in the same sequence, the figures for `CNC(=O)OCc1c(COC(=O)NC)c2n(c1C)CSC2` were greater than 200 µM and 8.13 µM. Take `Cc1ccc(CN2CC(=O)N3Cc4ccccc4CN3C(=O)C2)cc1`: the outcome was inactive. On to `O/N=C1\CCCCC1C(NO)c1ccccc1` (stereo not given), for which the EC50 was greater than 398 µM and the half-inhibitory concentration (IC50) turned out to be 191 µM. Turning to `Cc1ccc(Nc2nc(=O)[nH]c(=O)[nH]2)cc1N`, the EC50 was greater than 200 µM and the half-maximal inhibitory concentration (IC50) is greater than 200 µM. As to `COc1cc(/C=N\NC(=O)C[N+](C)(C)C)cc(OC)c1OC`, the EC50 is greater than 200 µM and the IC50 is greater than 200 µM.

As to `Cn1c2ccccc2n2c(=O)c3cc([N+](=O)[O-])ccc3c(C#N)c12`, the EC50 was greater than 100 µM and the IC50 was greater than 100 µM.

For `CC1C2CC3(c4ccccc4)CC(/C2=N\O)/C(=N/O)C1/C3=C\O` (stereo not given), the EC50 was greater than 200 µM and the IC50 was greater than 200 µM. Consider `CN(C)CCNc1nc2c(no[n+]2[O-])c2ccccc12`, for which the EC50 was greater than 200 µM and the IC50 amounted to 9.33 µM.

Turning to `O=c1/c(=C/c2c(O)ccc3ccccc23)sc2nc3ccccc3n12`, the outcome was inactive. On to `COc1ccc(-n2c(=O)n(C)c(=O)n2-c2ccc(OC)cc2)cc1`, for which the EC50 was greater than 200 µM and the IC50 was greater than 200 µM. `C/C(=N\Nc1ccccc1)c1sc(-c2nc(C)c(/C(C)=N/Nc3ccccc3)s2)nc1C`: the EC50 was greater than 15.5 µM and the IC50 was greater than 15.5 µM. For the compound `CN(C)c1ccc(/C=N/NS(=O)(=O)c2ccc(N)cc2)cc1`, the EC50 is greater than 214 µM and the IC50 was greater than 214 µM.

For the compound `O=C(Oc1ccc(Cl)cc1[N+](=O)[O-])c1ccccc1`, the outcome was inactive. Consider `COc1ccc(C(=O)/C=C/c2ccc(OCC#N)cc2)cc1OC`, for which the EC50 was greater than 200 µM and the IC50 came out at 3.31 µM.

`CN(C)CCCN1C(=S)N(CCCN(C)C)c2c3ccccc3nc3c([N+](=O)[O-])ccc1c23`: the EC50 is 0.407 µM and the IC50 came out at 1.07 µM. Taken in the same sequence, the figures for `O=C1NN(c2ccccc2)C(=O)C2C3c4ccccc4C(c4ccccc43)C12` (stereo not given) were greater than 200 µM and greater than 200 µM. As to `CCOC(=O)CCC(NC(=O)OCc1ccccc1)C(=O)NC(CCC(=O)OCC)C(=O)NC(CCC(=O)OCC)C(=O)NC(CCC(=O)OCC)C(=O)NC(CCC(=O)OCC)C(=O)OCC` (stereo not given), the EC50 was greater than 100 µM and the IC50 is greater than 100 µM. With `NNC(=O)c1c/c(=N\NC(=O)CC(=O)Nc2ccccc2Cl)c2ccccc2o1`, the EC50 is greater than 1.74 µM and the IC50 was greater than 1.74 µM. Regarding `O=C1CSC(=O)N1`, the EC50 is greater than 2140 µM and the IC50 is greater than 2140 µM. As for `CN=C(N)N=Nc1c(O)[nH]c2ccccc12`, the EC50 is greater than 200 µM and the IC50 was greater than 200 µM. Take `C[C@H]1[C@H](C)N1CC(O)Cn1ccnc1[N+](=O)[O-]` (stereo not given in full): the EC50 was greater than 200 µM and the 50% inhibitory concentration (IC50) was greater than 200 µM. For `Cc1cc(Cl)n2nc(-c3ccc(Cl)cc3)nc2n1`, the EC50 was greater than 49 µM and the IC50 was greater than 49 µM.

Turning to `CCOc1ccc(-c2nc(-c3oc4ccccc4c(=O)c3OC(C)=O)cs2)cc1`, the EC50 is greater than 200 µM and the IC50 amounted to 112 µM. Taken in the same sequence, the figures for `c1cc2c3c(c1)[I+]c1cccc(c1-3)[I+]2` were greater than 100 µM and 0.12 µM. For the compound `COc1ccc(/C=C2/C(=O)N=C(NC(C)=O)N2C)cc1OC`, the EC50 was greater than 200 µM and the half-maximal inhibitory concentration (IC50) was greater than 200 µM. In the case of `O=[N+]([O-])c1ccc(-n2nnc(C3=NCCN3)c2-c2ccc(Cl)cc2)cc1`, the EC50 is greater than 135 µM and the half-maximal inhibitory concentration (IC50) is greater than 135 µM. For `Cc1cc(S(=O)(=O)Nc2nc(N)nc(N(C)C)n2)c(SC(C(=O)O)c2ccccc2)cc1Cl` (stereo not given), the EC50 is 85.1 µM and the half-maximal inhibitory concentration (IC50) is greater than 200 µM. Consider `COc1cc2c3c(c1)[nH]c(=S)n3C(=O)C(c1ccccc1)S2` (stereo not given), for which the EC50 is greater than 200 µM and the IC50 was 40.7 µM. Taken in the same sequence, the figures for `CCOC(=O)C1(C(=O)OCC)COS(=O)OC1` were greater than 186 µM and 97.7 µM.

For `O=C(O)C1(C(=O)O)CC2C3C=CC(C3)C2C1` (stereo not given), the EC50 is greater than 398 µM and the IC50 was greater than 398 µM. `O=C1c2cc3c(cc2CC12Cc1cc4c(cc1C2=O)CCC4)CCCC3` (stereo not given): the EC50 is greater than 200 µM and the IC50 is greater than 200 µM.

Take `N/C(=N\N=C\c1ccc(C(F)(F)F)cc1)NO`: the EC50 was greater than 427 µM and the IC50 was greater than 427 µM. For the compound `O=CN(c1ccccc1)c1c([N+](=O)[O-])cc([N+](=O)[O-])c2c1=NCN=2`, the EC50 is greater than 79.4 µM and the half-inhibitory concentration (IC50) is greater than 79.4 µM.

Turning to `CC1C(c2ccc3c(c2)OCO3)c2cc3c(cc2OC1N1CCOCC1)OCO3` (stereo not given), the EC50 was greater than 200 µM and the IC50 was 10.7 µM. Taken in the same sequence, the figures for `C/C(=N/NC(=S)Nc1cccc(Cl)c1)c1ccccn1` were greater than 0.2 µM and 0.0851 µM. As for `Cc1ccc(S(=O)(=O)NCCSSCCNS(=O)(=O)c2ccc(C)cc2)cc1`, the EC50 was greater than 200 µM; the IC50 is 19.5 µM and 26.9 µM.

On to `COc1ccc(C(C#N)NNC(=O)Cc2ccccc2)cc1OC` (stereo not given), for which the EC50 is greater than 398 µM and the IC50 stood at 331 µM. Taken in the same sequence, the figures for `O=Nc1ccc2ccccc2c1N=Nc1ccccc1C(=O)O` were greater than 200 µM and 182 µM.

Regarding `CC(C)(C)[Si](C)(C)OC1C(=O)C(CO)OC1n1ccc(=O)[nH]c1=O` (stereo not given), the EC50 was greater than 200 µM and the IC50 was greater than 200 µM. As for `C[N+](C)(C)/N=C/c1ccc(O)c(O)c1`, the EC50 is greater than 200 µM and the IC50 was greater than 200 µM. On to `CCOC(=O)C(NC(=O)c1cccc(Cl)c1)(Nc1cccc(C)c1)C(F)(F)F` (stereo not given), for which the EC50 was greater than 200 µM and the IC50 stood at 17.4 µM.

`COc1ccc(N2C(=O)C3c4[nH]c5ccc(OCc6ccccc6)cc5c4C4CCC(c5ccccc5)CC4C3C2=O)cc1` (stereo not given): the EC50 is greater than 100 µM and the half-maximal inhibitory concentration (IC50) was greater than 100 µM.

As to `CC(=S)NC=C(C(N)=O)C(N)=O`, the EC50 was greater than 200 µM and the IC50 was greater than 200 µM. In the case of `C[C@]12CCc3nn(-c4ccccc4)nc3C1CC[C@@H]1C2CC[C@]2(C)NC(=O)CCC12` (stereo not given in full), the EC50 was greater than 23.4 µM and the IC50 was greater than 23.4 µM. As for `COC(=O)C12CC3CC(CC(NC(=O)C(Cc4ccccc4)NC(=O)CN)(C3)C1)C2` (stereo not given), the EC50 is greater than 200 µM and the 50% inhibitory concentration (IC50) is 110 µM.
